Results on 25 compounds are retold here after patent US6251932A, “Immunophilin ligands” (ASTA Medica AG, priority 1998, dated 2001).

As a reminder, the inhibition is the share of the control response that was lost under treatment. A low value points to a weak effect.

The target of data set [1] is human cyclophilin B (Homo sapiens, UniProt P23284). The data set is described as follows: PPIase test: inhibition of human cyclophilin B (Suc-Ala-Ala-Pro-Phe-Nan, chymotrypsin). The following applies: Compound [10 μmol]; preincubated 15 minutes at 4° C. with 10 nmol Cyp B. The data set is classed as biochemical. As to the method: The compounds of Formula I of the present invention are distinguished by immunophilin binding and inhibit isomerase activity. This prolyl isomerase activity is tested according to a conventional, well known enzyme test described in G. Fischer, H. Bang. Mech, Biomed. Biochim. Acta, 43, 1101-1111; G. Fischer, H. Bang, A Schellenberger, Biochim. Biophys. Acta, 791, 87-97, 1984; D. H. Rich et al., J. Med. Chem. 38, 4164-4170, 1995.
The compounds of Formula I of the present invention are distinguished by immunophilin binding and inhibit its peptidyl-prolyl cis-trans isomerase (PPlase) activity. […] This PPlase activity is determined by the aforementioned well known enzyme test.
The compounds of Formula I are preincubated at 4° C. for 15 minutes together with 10 nmol of Cyp B. The enzyme reaction is started using the test peptide Suc-Ala-Ala-Pro-Phe-Nan after addition of chymotrypsin and HEPES buffer. The change in extinction at 390 nm is then monitored and analyzed. The photometrically determined change in extinction results from two subreactions: a) the rapid chymotryptic cleavage of the trans peptide; b) the nonenzymatic cis-trans isomerization, which is catalysed by cyclophilins.

Data set [2] has as its system T cells stimulated with OKT-3. Nature of the data set: IL-2 proliferation test: 3H-thymidine incorporation in T cells stimulated with OKT-3 (CD3-induced proliferation). The following applies: Compound [10 μmol], OKT-3 1 μg/ml, 45 hours; for inhibition: T-cell. The data set is classed as cell-based. As to the method: The IL-2 proliferation test is based on the incorporation of ^3 H-thymidine in T cells stimulated with OKT-3 (human anti-CD-3-antibodies) and is carried out by inoculating 100,000 T cells into microtitre plates in 150 μl of culture medium per well, stimulated by addition of OKT-3 (1 μg/ml) and incubated for 45 hours in each case with one of the compounds of Formula I. After this incubation time, 10 μl of the ^3 H-thymidine solution (0.5 μCi) are pipetted into each well. The mixture is then incubated in a 5% CO2 atmosphere at 37° C. for 6 hours. After harvesting the cells, the radioactivity is quantified in a B-counter.
(In general: Dividing cells build labelled thymidine or BrdU into new DNA.)

Data set [3] concerns FKBP. The following applies: cited from earlier work.
The conditions of data set [4]: kidneys, neurotoxicity; cited from earlier work.
In data set [5] the test system is bronchial asthma and underlying inflammations. The following applies: animal experiments and clinical studies; cited from earlier work.

human cyclophilin B, sequence (P23284 34-216): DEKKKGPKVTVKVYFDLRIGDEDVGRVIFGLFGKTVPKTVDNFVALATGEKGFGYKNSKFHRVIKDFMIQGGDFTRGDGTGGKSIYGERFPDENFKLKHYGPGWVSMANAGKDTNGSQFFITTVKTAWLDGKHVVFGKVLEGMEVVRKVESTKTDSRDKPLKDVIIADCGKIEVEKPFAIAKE

In the case of `CC(=O)Nc1ccc(S(=O)(=O)N2c3ccccc3C[C@H]2C(=O)N[C@@H](CC(C)C)C(=O)O)cc1` [Example 11], the “Inhibition [%] of PPIase activity” value in data set [1] is reported as 40%. In data set [2], the “CD3-induced inhibition of proliferation in [%]” value was determined as 61%.
The compound `COCCNC(=O)[C@@H]1Cc2ccccc2N1C(=O)[C@@H]1Cc2ccccc2N1S(=O)(=O)c1ccc(N)cc1` [Example 6, (2S)-1-[((2S)-1-(4-aminophenylsulfonyl)indolin-2-yl)carbonyl]-N-(2-methoxyethyl)indoline-2-carbamide] had an inhibition at 10 µM in data set [1] of 40%. This compound returned an inhibition in data set [2] of 84%.
The like results for `COCCNC(=O)[C@@H]1Cc2ccccc2N1C(=O)C1CCN(S(=O)(=O)c2ccc(NC(C)=O)cc2)CC1` [Example 9] were, in that order, 40 to 60% and 75%.
In data set [1], `COC(=O)/C=C/c1ccc(NC(=O)[C@@H]2Cc3ccccc3N2S(=O)(=O)c2ccc(NC(C)=O)cc2)cc1` [Example 13, Methyl (E)-({(2S)-1-[4(acetylamino)phenylsulfonyl]indoln-2-yl}-carbonyl)-4-(aminophenyl)acrylate] showed an inhibition at 10 µM of 0 to 20%. This compound also came in with an inhibition in data set [2] of 46%.
The compound `Cc1ccc(S(=O)(=O)N2c3ccccc3C[C@H]2C(=O)N2c3ccccc3C[C@H]2C(=O)NCCc2ccccn2)cc1` [Example 18, (2S)-1-[((2S)-1-(4-methylphenylsulfonyl)indolin-2-yl)carbonyl]-N^2-(ethyl-2-pyridine)indoline-2-carbamide] registered an inhibition at 10 µM in data set [1] of 40%. The same compound displayed an inhibition in data set [2] of 59%.
The matching figures for `CC(=O)Nc1ccc(S(=O)(=O)N2c3ccccc3C[C@@H]2C(=O)N2c3ccccc3C[C@@H]2C(=O)O)cc1` (racemic) [Example 23, (2RS)-1-({(2RS)-1-[4-(acetylamino)phenylsulfonyl]indolin-2-yl}-carbonyl)indoline-2-carboxylic acid]: 0 to 20% and 46%.
The like results for `COCCNC(=O)[C@@H]1Cc2ccccc2N1C(=O)[C@@H]1Cc2ccccc2N1S(=O)(=O)c1cccc2ccccc12` [Example 14, (2S)-1-[((2S)-1-(1-naphthalenylsulfonyl)indolin-2-yl)carbonyl]-N-(2-methoxyethyl)indoline-2-carbamide] were, in that order, 20% and 48%.
For the compound `COCCNC(=O)[C@H]1Cc2ccccc2N1C(=O)[C@H]1Cc2ccccc2N1S(=O)(=O)c1ccc(NC(C)=O)cc1` [Example 4], testing at 10 µM in data set [1] gave an inhibition of 60%. Besides, the inhibition in data set [2] stood at 85%.
On to `C=CC[C@@H]1/C=C(\C)C[C@H](C)C[C@H](OC)[C@H]2O[C@@](O)(C(=O)C(=O)N3CCCC[C@H]3C(=O)O[C@H](/C(C)=C/[C@@H]3CC[C@@H](O)[C@H](OC)C3)[C@H](C)[C@@H](O)CC1=O)[C@H](C)C[C@@H]2OC` [FK 506], for which the “binding to FKBP” value in data set [3] is reported as “bind with high affinity”. Further, the side effects result in data set [4] is “manifold side effects, in particular of the kidneys, and neurotoxicity”. The “therapeutic effect in bronchial asthma” value in data set [5] was “favorable therapeutic in bronchial asthma and underlying inflammations”.
In data set [1], `COCCNC(=O)[C@@H]1Cc2ccccc2N1C(=O)C1CCN(S(=O)(=O)c2ccc(N)cc2)CC1` [Example 8, (2S)-1-[((2S)-1-(4-aminophenylsulfonyl)-4-piperidinyl)carbonyl]-N-(2-methoxyethyl)indoline-2-carbamide] yielded an inhibition at 10 µM of 40 to 60%. In data set [2], this compound gave an inhibition of 71%.
Compound `COCCNC(=O)[C@@H]1Cc2ccccc2N1C(=O)[C@@H]1CCCN1S(=O)(=O)c1ccc(N)cc1` [Example 7, (^2 S)-1-[((2S)-1-(4-aminophenylsulfonyl)prolyl)carbonyl]-N-(2-methoxyethyl)indoline-2-carbamide] showed an inhibition at 10 µM in data set [1] of 40%. For the same compound, the inhibition in data set [2] amounted to 79%.
The matching figures for `COCCNC(=O)[C@@H]1Cc2ccccc2N1C(=O)[C@H]1Cc2ccccc2N1S(=O)(=O)c1ccc(NC(C)=O)cc1` [Example 3]: 40% and 84%.
The matching figures for `COCCNC(=O)[C@H]1Cc2ccccc2N1C(=O)[C@@H]1Cc2ccccc2N1S(=O)(=O)c1ccc(NC(C)=O)cc1` [Example 2]: 40% and 85%.
The like results for `COC(=O)[C@H](CCCCNC(=O)OCc1ccccc1)NC(=O)[C@@H]1Cc2ccccc2N1S(=O)(=O)c1ccc(NC(C)=O)cc1` [Example 12, (S)-N-{(2S)-1-[4-(acetylamino)phenylsulfonyl]indolin-2-yl}carbonyl-N-(benzyloxycarbonyl)lysine methyl ester] were, in that order, 60% and 79%.
For `Cc1ccc(S(=O)(=O)N2c3ccccc3C[C@H]2C(=O)N2c3ccccc3C[C@H]2C(=O)NCCCn2ccnc2)cc1` [Example 16, (2S)-1-[((2S)-1-(4-methylphenylsulfonyl)indolin-2-yl)carbonyl]-N^3-(N-propylimidazole)indoline-2-carbamide], the inhibition at 10 µM in data set [1] lay within 20 to 40%. Further, in data set [2], the inhibition is 54%.
In turn, `Cc1ccc(S(=O)(=O)N2c3ccccc3C[C@H]2C(=O)N2c3ccccc3C[C@H]2C(=O)Nc2ccncc2)cc1` [Example 19, (2S)-1-[((2S)-1-(4-methylphenylsulfonyl)indolin-2-yl)carbonyl]-(4-pyridine)indoline-2-carbamide] gave an inhibition at 10 µM in data set [1] of 40%. Moreover, the inhibition in data set [2] was found to be 64%.
`COCCNC(=O)[C@@H]1Cc2ccccc2N1C(=O)[C@@H]1Cc2ccccc2N1S(=O)(=O)c1ccc2ccccc2c1` [Example 15, (2S)-1-[((2S)-1-(2-Naphthalenylsulfonyl)indolin-2-yl)carbonyl]-N-(2-methoxyethyl)indoline-2-carbamide] displayed an inhibition at 10 µM in data set [1] of 20%. In data set [2], the inhibition was 56%.
With `CO[C@H]1C[C@@H]2CC[C@@H](C)[C@@](O)(O2)C(=O)C(=O)N2CCCC[C@H]2C(=O)O[C@H]([C@H](C)C[C@@H]2CC[C@@H](O)[C@H](OC)C2)CC(=O)[C@H](C)/C=C(\C)[C@@H](O)[C@@H](OC)C(=O)[C@H](C)C[C@H](C)/C=C/C=C/C=C/1C` [rapamycin], the side effects entry in data set [4] is “manifold side effects, in particular of the kidneys, and neurotoxicity”.
Consider `COCCNC(=O)C1Cc2ccccc2N1C(=O)C1Cc2ccccc2N1S(=O)(=O)c1ccc(NC(C)=O)cc1` (racemic) [Example 5, (2R,S)-1-[((2R,S)-1-(4-acetylaminophenylsulfonyl)indolin-2-yl)-carbonyl]-N-(2-methoxyethyl)indoline-2-carbamide], for which the inhibition at 10 µM in data set [1] lay within 20 to 40%. Besides, in data set [2], the inhibition was 85%.
The matching figures for `COCCNC(=O)[C@@H]1Cc2ccccc2N1S(=O)(=O)c1cccc2cccnc12` [Example 10, (2S)-1-[(8-quinolinylsulfonyl)]-N-(2-methoxyethyl)indolinecarbamide]: 20 to 40% and 59%.
`COC(=O)[C@H]1Cc2ccccc2N1C(=O)[C@H]1Cc2ccccc2N1S(=O)(=O)c1ccc(NC(C)=O)cc1` (racemic) [Example 22, Methyl (2RS)-1-({(2RS)-1-[4-(acetylamino)phenylsulfonyl]indolin-2-yl}carbonyl)indoline-2-carboxylate] registered an inhibition at 10 µM in data set [1] of 30%. This compound also returned an inhibition in data set [2] of 43%.
The matching figures for `Cc1ccc(S(=O)(=O)N2c3ccccc3C[C@H]2C(=O)N2c3ccccc3C[C@H]2C(=O)NCCN2CCOCC2)cc1` [Example 17, (2S)-1-[((2S)-1-(4-methylphenylsulfonyl)indolin-2-yl)carbonyl]-N^2-(N-ethylmorpholine)indoline-2-carbamide]: 40% and 57%.
As for `CC(=O)Nc1ccc(S(=O)(=O)N2c3ccccc3C[C@@H]2C(=O)O)cc1` [Example 21, (2R)-[4-(acetylamino)phenylsulfonyl]indoline-2-carboxylic acid], the inhibition at 10 µM in data set [1] is 0 to 20%. In addition, the inhibition in data set [2] came out at 12%.
`COC(=O)[C@H]1Cc2ccccc2N1S(=O)(=O)c1ccc(NC(C)=O)cc1` [Example 20, Methyl (2R)-[4-(acetylamino)phenylsulfonyl]indoline-2-carboxylate] yielded an inhibition at 10 µM in data set [1] of 0 to 20%. In data set [2], this compound registered an inhibition of 15%.
The like results for `COCCNC(=O)[C@@H]1Cc2ccccc2N1C(=O)[C@@H]1Cc2ccccc2N1S(=O)(=O)c1ccc(NC(C)=O)cc1` [Example 1] were, in that order, 40% and 83%.
